This passage reports IC50 results from patent US20210070748A1, “INHIBITORS OF BRUTONS TYROSINE KINASE” (Pharmacyclics LLC, priority 2015, published 2021).

What is called pIC50 is the negative decadic logarithm of the IC50, by convention in mol/L.

pIC50: −log10 of the molar value. Read-outs that look alike come from different tables or passages of the source.

Assay [1] addresses T1, ITK (Homo sapiens, UniProt Q08881).
T1 sequence (Q08881 1-620): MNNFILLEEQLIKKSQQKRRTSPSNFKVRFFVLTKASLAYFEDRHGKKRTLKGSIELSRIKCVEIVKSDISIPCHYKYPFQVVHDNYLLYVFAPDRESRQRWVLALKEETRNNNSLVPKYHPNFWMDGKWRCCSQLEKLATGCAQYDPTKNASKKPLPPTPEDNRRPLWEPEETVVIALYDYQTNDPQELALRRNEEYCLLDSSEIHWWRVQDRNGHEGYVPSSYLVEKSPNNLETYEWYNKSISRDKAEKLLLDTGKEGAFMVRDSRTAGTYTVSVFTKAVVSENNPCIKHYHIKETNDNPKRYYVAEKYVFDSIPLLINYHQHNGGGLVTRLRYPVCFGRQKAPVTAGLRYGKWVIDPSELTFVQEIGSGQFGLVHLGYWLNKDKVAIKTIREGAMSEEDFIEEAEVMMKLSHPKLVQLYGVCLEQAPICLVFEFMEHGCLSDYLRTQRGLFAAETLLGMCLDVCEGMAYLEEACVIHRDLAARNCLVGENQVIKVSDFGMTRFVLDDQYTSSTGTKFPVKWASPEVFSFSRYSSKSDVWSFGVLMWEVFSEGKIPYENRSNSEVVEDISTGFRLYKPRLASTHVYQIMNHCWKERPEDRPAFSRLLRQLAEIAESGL
In words: Inhibition of a panel of kinases, in vitro HotSpot kinase assay: ITK. It is filed as biochemical. On the procedure: The degree of inhibition of a panel of kinases is determined using the in vitro HotSpot kinase assay (purified enzymes, ^33P-ATP, an appropriate substrate and 1 μM ATP).

In assay [2] the target is T2, JAK3 (Homo sapiens, UniProt P52333).
T2 sequence (P52333 1-1124): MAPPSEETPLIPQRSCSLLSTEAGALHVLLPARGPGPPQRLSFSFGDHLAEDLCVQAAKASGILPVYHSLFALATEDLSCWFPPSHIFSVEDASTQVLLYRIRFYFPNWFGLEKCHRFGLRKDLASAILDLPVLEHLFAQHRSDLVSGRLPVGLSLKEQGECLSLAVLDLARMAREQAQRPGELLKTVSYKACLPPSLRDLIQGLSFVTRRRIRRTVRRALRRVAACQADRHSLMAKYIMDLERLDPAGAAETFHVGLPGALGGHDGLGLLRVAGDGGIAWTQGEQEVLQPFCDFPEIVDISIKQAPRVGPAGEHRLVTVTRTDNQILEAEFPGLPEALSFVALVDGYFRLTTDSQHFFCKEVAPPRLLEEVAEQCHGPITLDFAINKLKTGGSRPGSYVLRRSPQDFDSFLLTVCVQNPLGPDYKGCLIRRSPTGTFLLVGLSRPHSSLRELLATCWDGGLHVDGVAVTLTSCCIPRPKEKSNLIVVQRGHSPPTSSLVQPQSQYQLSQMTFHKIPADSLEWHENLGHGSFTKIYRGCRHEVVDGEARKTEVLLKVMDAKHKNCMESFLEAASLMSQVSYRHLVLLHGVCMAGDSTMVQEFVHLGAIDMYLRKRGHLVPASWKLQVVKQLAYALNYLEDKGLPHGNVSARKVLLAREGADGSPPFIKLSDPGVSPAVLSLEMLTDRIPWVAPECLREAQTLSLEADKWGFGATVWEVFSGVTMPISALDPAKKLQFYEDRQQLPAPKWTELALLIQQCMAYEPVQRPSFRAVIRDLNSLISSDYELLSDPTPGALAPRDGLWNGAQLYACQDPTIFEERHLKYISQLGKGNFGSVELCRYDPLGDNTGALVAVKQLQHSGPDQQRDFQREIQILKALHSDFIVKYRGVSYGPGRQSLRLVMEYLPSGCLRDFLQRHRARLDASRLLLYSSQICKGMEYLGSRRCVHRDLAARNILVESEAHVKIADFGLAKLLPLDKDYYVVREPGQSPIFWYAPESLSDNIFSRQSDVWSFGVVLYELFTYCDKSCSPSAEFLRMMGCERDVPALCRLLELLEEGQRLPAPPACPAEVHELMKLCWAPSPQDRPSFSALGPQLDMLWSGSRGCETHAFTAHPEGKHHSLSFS
Kind of assay: Inhibition of a panel of kinases, in vitro HotSpot kinase assay: JAK3. It is filed as biochemical. The settings on record: read-out: IC50 JAK3.

Where [3] appears, read: D-compounds panel data, 1 μM ATP.

`Cc1cc(Nc2nc(N3C[C@@H](NC(=O)c4ccc(C5CC5)cc4F)CC[C@H]3C)cnc2C(N)=O)sn1` [Example D-80, 5-[(2R,5S)-5-(4-cyclopropyl-2-fluorobenzamido)-2-methylpiperidin-1-yl]-3-[(3-methyl-1,2-thiazol-5-yl)amino]pyrazine-2-carboxamide]: the pIC50 in assay [1] (setting [3]) is under 5.00; in assay [2] (setting [3]), 5.00 to 6.00.
As to `C=CC(=O)N1CCC[C@@H](Nc2cnc(C(N)=O)c(Nc3ccc(C4CCN(C5CCCC5)CC4)cc3)n2)C1` [Example E-108, (R)-5-(1-acryloylpiperidin-3-ylamino)-3-(4-(1-cyclopentylpiperidin-4-yl)phenylamino)pyrazine-2-carboxamide], the negative-log IC50 (pIC50) in assay [1] (E compounds, Table 17) was at least 8.00; in assay [2] (E compounds, Table 17) it was over 8.00.
Regarding `C[C@@H]1[C@H](NC(=O)c2ccc(C3CC3)cc2)CCCN1c1cnc(C(N)=O)c(Nc2ccc(N3CCC(C(=O)N(C)C)CC3)cc2)n1` [Example D-320, 5-[(2R,3R)-3-(4-cyclopropylbenzamido)-2-methylpiperidin-1-yl]-3-({4-[4-(dimethylcarbamoyl)piperidin-1-yl]phenyl}amino)pyrazine-2-carboxamide], the pIC50 was 7.00 to 8.00 in assay [1] (setting [3]) and 5.00 to 6.00 in assay [2] (setting [3]).
The matching figures for `C[C@@H]1[C@H](NC(=O)c2ccc3c(c2)C(C)(C)CO3)CCCN1c1cnc(C(N)=O)c(Nc2cnn(C)c2)n1` [Example D-55, 5-[(2R,3R)-3-(3,3-dimethyl-2,3-dihydro-1-benzofuran-5-amido)-2-methylpiperidin-1-yl]-3-[(1-methyl-1H-pyrazol-4-yl)amino]pyrazine-2-carboxamide]: 6.00 to 7.00 and under 5.00.
The matching figures for `C[C@H]1C[C@@H](NC(=O)c2ccc(C3CC3)cc2)CN(c2cnc(C(N)=O)c(Nc3cnn(C)c3)n2)C1` [Example D-30, 5-[(3R,5S)-3-(4-cyclopropylbenzamido)-5-methylpiperidin-1-yl]-3-[(1-methyl-1H-pyrazol-4-yl)amino]pyrazine-2-carboxamide]: 5.00 to 6.00 and under 5.00.
The matching figures for `C[C@@H]1[C@H](NC(=O)c2ccc(C(F)(F)F)cn2)CCCN1c1cnc(C(N)=O)c(Nc2cnn(C)c2)n1` [Example D-87, 3-[(1-methyl-1H-pyrazol-4-yl)amino]-5-[(2R,3R)-2-methyl-3-[5-(trifluoromethyl)pyridine-2-amido]piperidin-1-yl]pyrazine-2-carboxamide]: 6.00 to 7.00 and 6.00 to 7.00.
For `C[C@@H]1[C@H](NC(=O)c2ccc(C3CC3)cc2)CCCN1c1cnc(C(N)=O)c(Nc2ccc(N3CCN(C)CC3)cc2)n1` [Example D-81], the pIC50 in assay [1] (setting [3]) was 6.00 to 7.00; in assay [2] (setting [3]), 5.00 to 6.00.
Regarding `CC1COc2cc(C(=O)N[C@@H]3CCCN(c4cnc(C(N)=O)c(Nc5cnn(C)c5)n4)[C@@H]3C)ccc2C1` (stereo partly drawn) [Example D-56, 3-[(1-methyl-1H-pyrazol-4-yl)amino]-5-[(2R,3R)-2-methyl-3-(3-methyl-3,4-dihydro-2H-1-benzopyran-7-amido)piperidin-1-yl]pyrazine-2-carboxamide], the pIC50 was 6.00 to 7.00 in assay [1] (setting [3]) and under 5.00 in assay [2] (setting [3]).
The like results for `Cc1csc(Nc2nc(N3CCC[C@@H](NC(=O)c4ccc(C5CC5)cc4F)[C@H]3C)cnc2C(N)=O)n1` [Example D-63, 5-[(2R,3R)-3-(4-cyclopropyl-2-fluorobenzamido)-2-methylpiperidin-1-yl]-3-[(4-methyl-1,3-thiazol-2-yl)amino]pyrazine-2-carboxamide] were, in that order, under 5.00 and under 5.00.
In the case of `Cn1cc(Nc2nc(N3CCC[C@H]4[C@@H]3CCCN4C(=O)c3ccc(C4CC4)cc3)cnc2C(N)=O)cn1` [Example D-47, 5-[(4aS,8aS)-5-(4-cyclopropylbenzoyl)-decahydro-1,5-naphthyridin-1-yl]-3-[(1-methyl-1H-pyrazol-4-yl)amino]pyrazine-2-carboxamide], the pIC50 in assay [1] (setting [3]) and in assay [2] (setting [3]) was under 5.00 throughout.
On to `C[C@@H]1[C@H](NC(=O)c2ccc(C3CC3)cc2F)CCCN1c1cnc(C(N)=O)c(Nc2ccc(C3(C)CCN(C4CCCC4)CC3)cc2)n1` [Example D-66, 3-{[4-(1-cyclopentyl-4-methylpiperidin-4-yl)phenyl]amino}-5-[(2R,3R)-3-(4-cyclopropyl-2-fluorobenzamido)-2-methylpiperidin-1-yl]pyrazine-2-carboxamide], for which the pIC50 in assay [1] (setting [3]) is 7.00 to 8.00; in assay [2] (setting [3]), 6.00 to 7.00.
In the case of `C[C@@H]1C[C@@H](NC(=O)c2ccc(C3CC3)cc2)CN(c2cnc(C(N)=O)c(Nc3cnn(C)c3)n2)C1` [Example D-31, 5-[(3R,5R)-3-(4-cyclopropylbenzamido)-5-methylpiperidin-1-yl]-3-[(1-methyl-1H-pyrazol-4-yl)amino]pyrazine-2-carboxamide], the pIC50 in assay [1] (setting [3]) and in assay [2] (setting [3]) was 5.00 to 6.00 throughout.
Turning to `CN(C)C(=O)N[C@@H]1CCCN(c2cnc(C(N)=O)c(Nc3ccc(C4(C)CCN(C5CCCC5)CC4)cc3)n2)[C@H]1CO` [Example D-60, 3-{[4-(1-cyclopentyl-4-methylpiperidin-4-yl)phenyl]amino}-5-[(2R,3R)-3-[(dimethylcarbamoyl)amino]-2-(hydroxymethyl)piperidin-1-yl]pyrazine-2-carboxamide], the pIC50 in assay [1] (setting [3]) was 6.00 to 7.00; in assay [2] (setting [3]), 5.00 to 6.00.
For `Cn1cc(Nc2nc(N3CCC[C@@H](NC(=O)c4ccc(C(C)(C)O)cc4)C3)nnc2C(N)=O)cn1` [Example D-39, 3-[(3R)-3-[4-(2-hydroxypropan-2-yl)benzamido]piperidin-1-yl]-5-[(1-methyl-1H-pyrazol-4-yl)amino]-1,2,4-triazine-6-carboxamide], the pIC50 in assay [1] (setting [3]) and in assay [2] (setting [3]) was 6.00 to 7.00 each time.
Turning to `Cn1cc(Nc2nc(N3CCC[C@@H]4[C@H]3CCN4C(=O)c3ccc(C4CC4)cc3)cnc2C(N)=O)cn1` [Example D-44, 5-[(3aR,7aR)-1-(4-cyclopropylbenzoyl)-octahydro-1H-pyrrolo[3,2-b]pyridin-4-yl]-3-[(1-methyl-1H-pyrazol-4-yl)amino]pyrazine-2-carboxamide], the results for the pIC50 in assay [1] (setting [3]) and in assay [2] (setting [3]) were under 5.00 and 5.00 to 6.00, respectively.
The like results for `C[C@@H]1[C@H](NC(=O)c2ccc(C(F)(F)F)nc2)CCCN1c1cnc(C(N)=O)c(Nc2cnn(C)c2)n1` [Example D-91, 3-[(1-methyl-1H-pyrazol-4-yl)amino]-5-[(2R,3R)-2-methyl-3-[6-(trifluoromethyl)pyridine-3-amido]piperidin-1-yl]pyrazine-2-carboxamide] were, in that order, 6.00 to 7.00 and 6.00 to 7.00.
The like results for `CN1CCN(C(=O)c2ccc(Nc3nc(N[C@H]4CC[C@@H](NC(=O)N(C)C)CC4)cnc3C(N)=O)cc2)CC1` [Example D-72, 3-{[4-(4-methylpiperazine-1-carbonyl)phenyl]amino}-5-{[(1s,4s)-4-[(dimethylcarbamoyl)amino]cyclohexyl]amino}pyrazine-2-carboxamide] were, in that order, 5.00 to 6.00 and 5.00 to 6.00.
The like results for `Cc1cc(Nc2nc(N3C[C@@H](NC(=O)N(C)C)CC[C@H]3C)cnc2C(N)=O)sn1` [Example D-75, 5-[(2R,5S)-5-[(dimethylcarbamoyl)amino]-2-methylpiperidin-1-yl]-3-[(3-methyl-1,2-thiazol-5-yl)amino]pyrazine-2-carboxamide] were, in that order, 5.00 to 6.00 and 6.00 to 7.00.
